The values that follow come from paper PMC8235661, “Photoelectric Dye, NK-5962, as a Potential Drug for Preventing Retinal Neurons from Apoptosis: Pharmacokinetic Studies Based on Review of the Evidence” (Life, 2021).

Series [1] has as its system apoptotic cells in the retinal outer nuclear layer of RCS rats. The series is described as follows: Intravitreous injection of NK-5962 in RCS rats, TUNEL assay of retinal outer nuclear layer. It counts as in vivo, rat. As for the experimental part:
NK-5962 powder was dissolved in distilled deionized water at a concentration of 8.2 μg/mL (16 μM). This original stock solution of NK-5962 (8.2 μg/mL) was diluted with saline (0.9% sodium chloride) to make a series of 10-fold dilutions from 8.2 × 10^−4 to 8.2 μg/mL. Twenty male pink-eyed RCS rats (RCS/Jcl-rdy/rdy, p-, CLEA Japan, Inc., Tokyo, Japan) at the age of 4 weeks were assigned to 5 groups (n = 4) that received NK-5962 at 5 different concentrations. Intravitreous injection was performed twice at the age of 4 and 5 weeks (Figure 4A). This study was approved by the Animal Care and Use Committee at the Okayama University (Identifier OKU-2013441) and based on the Animal Welfare and Management Act in Japan.
RCS rats were anesthetized by intraperitoneal injection of ketamine (87 mg/kg body weight, Daiichi Sankyo, Tokyo, Japan) and xylasine (13 mg/kg, Bayer Japan, Osaka, Japan). Mydriasis was induced by 0.5% tropicamide and 0.5% phenylephrine instillation (Santen Pharmaceutical, Osaka, Japan) and corneal anesthesia was further obtained with 0.4% oxybuprokaine instillation (Santen Pharmaceutical, Osaka, Japan). Under a dissecting microscope, 3 μL of NK-5962 solution and saline (0.9% sodium chloride) was injected into the vitreous of the left eye and the right eye, respectively, with a 30-gauge needle attached to a Hamilton syringe (50 μL 1705 LT SYR; Hamilton Company, Reno, NV, USA). The needle was inserted almost at a perpendicular angle and at 1mm from the corneoscleral limbus to avoid the damage to the lens. Antibiotic (0.5% moxifloxacin, Novartis Pharma Japan, Tokyo, Japan) eye drops were instilled for both eyes. Each rat was housed in a standard rat cage in the 12 h light and dark cycle at the Animal Center of Okayama University. In a separate experiment, 3 rats were placed and maintained in constant darkness after intravitreous injection of NK-5962 at a concentration of 8.2 μg/mL (16 μM).
Apoptotic cells were detected by terminal deoxynucleotidyl transferase-mediated fluorescein-conjugated dUTP nick-end-labeling (TUNEL) assay, according to the manufacturer’s instructions (In Situ Cell Death Detection Kit, Roche Diagnostics, Mannheim, Germany). The images at the constant exposure time were captured by an Olympus FSX100 microscope that was equipped with the fluorescent filter cube U-MWIBA3. Five photographs in each of 5 retinal vertical sections per eye were taken and an entire frame (220 × 165 μm) of each photograph with ×40 NA0.95 objective lens was used for measurements. The number of TUNEL-positive cells in the outer nuclear layer at each retinal site (a, b, c and d, Figure 4B) was counted in each frame of photographs. The number of TUNEL-positive cells per 1,000 μm^2 of the outer nuclear layer was calculated for comparison by two-factor ANOVA. […]

The nature of series [2]: Eye ball concentration after topical application as eye drops. It counts as in vivo. Particulars: Wistar, rat. As for the experimental part: The NK-5962 solutions at 16 μM concentration in phosphate-buffered saline and at 39.7 μM concentration in 0.5% methyl cellulose 400 solution (FUJIFILM Wako Chemicals, Osaka, Japan) were prepared as eye drops and topically applied to both eyes of two Wistar rats assigned for each concentration. The eyes were enucleated 30 min after topical application, washed twice in saline, weighed, and frozen for NK-5962 measurement. In parallel, 3 μL of the NK-5962 solution at 16 μM concentration in phosphate-buffered saline was injected into the vitreous of both eyes of 2 Wistar rats. The eyes in each rat were enucleated 5 min and 2 h after the intravitreous injection, washed twice in saline, weighed, and then frozen. Both eyes of one rat served as the negative control. This study was approved by the Animal Care and Use Committee at Okayama University (Identifier OKU-2016267, OKU-2019196).
Liquid chromatography and tandem mass spectrometry instrument (LC-MS8060) equipped with Shimadzu Nexera series LC system (Shimadzu, Kyoto, Japan) were used. All compounds were analyzed in multi-reaction monitoring mode under electron spray ionization conditions. The analytical column used was a […] C18 MGIII (3 μm × 2.0 mmID × 35 mm; OSAKA SODA, Osaka, Japan) at 50 °C. […]

Series [3] in a line: Reactive oxygen species (ROS) assay under simulated sunlight. It counts as physicochemical. As for the experimental part: The ROS assay was designed to detect both singlet oxygen and superoxide generated from photo-irradiated chemicals. Briefly, singlet oxygen was measured in aqueous solution by spectrophotometrically monitoring the bleaching of p-nitrosodimethylaniline at 440 nm using imidazole as a selective acceptor of singlet oxygen. Samples containing the tested chemical (20 or 200 μM), p-nitrosodimethylaniline (50 μM), and imidazole (50 μM) in 20 mM sodium phosphate buffer (pH 7.4) were mixed in a tube. Each sample in 200 μL was transferred into a well of a plastic 96-well plate (clear, untreated, and flat-bottomed) and checked for precipitation under a microscope with an objective lens (×100) before light exposure. The plate was subjected to a measurement of absorbance at 440 nm using a microplate spectrophotometer. The plate was fixed in the quartz reaction container with a quartz cover and then irradiated with the simulated sunlight (ultraviolet A/B and visible light, 250 W/m^2, Suntest CPS plus, Atlas Material Testing Technology, Mount Prospect, IL, USA) for 1 h. After agitation on a plate shaker, the UV absorbance at 440 nm was measured. For the determination of superoxide, samples containing the test chemical (20 or 200 μM) and nitroblue tetrazolium (50 μM) in 20 mM sodium phosphate buffer were irradiated with the simulated sunlight for 1 h and the reduction in nitroblue tetrazolium was measured by the increase in absorbance at 560 nm in the same manner as the singlet oxygen determination. Experiments were performed in triplicate wells in three independent runs. As the final concentration, 200 μM test chemical solutions should be subjected to the ROS assay. However, when precipitation could be observed at 200 μM under the optical microscope, additional experiments should be performed under appropriate dilution (20, 50, or 100 μM).

The nature of the next series: Eye irritation test. Particulars: in vivo.
The subject of another series is bacterial. The series is described as follows: Bacterial reverse mutation test.
The mark [4] stands for this setting: 20 µM, simulated sunlight 1 h, mean ± standard deviation (n = 3).

The structures appear in SMILES notation. Where two headings read alike, the source gives them in different places.

Turning to `CCCCN(CCCC)c1ccc(C=Cc2sc3ccccc3[n+]2CC(=O)O)cc1.[Br-]` [NK-5962, 2-[2-[4-(dibutylamino)phenyl]ethenyl]-3-carboxymethylbenzothiazolium bromide], the “percent ratio of the number of TUNEL-positive cells versus saline” value is given as 61% in series [1] (1.6 μM NK-5962 intravitreous) and 56% in series [1] (16 μM NK-5962 intravitreous). The EC50 was 3 µM in series [1] (16 μM × 3 μL / (3 + 13) μL, rat vitreous cavity estimated 13 μL, read-out: in vivo EC50 as intravitreous concentration) and about 16 µM in series [1] (Rattus norvegicus, 3 μL intravitreous injection, read-out: EC50 (50% effective concentration), concentration of injected solution). For the same compound, the concentration at 0.5 h in series [2] (topical eye drop 16 µM (10 µL)) is 0.14 nM; in series [2] (topical eye drop 39.7 µM (10 µL)), 0.96 nM. Further, the “Reactive Oxygen Species Generation Singlet oxygen” value in series [3] (setting [4]) is 93 ± 14 ΔA440 × 1000. Besides, the “Reactive Oxygen Species Generation Superoxide” value in series [3] (setting [4]) was “Not detected”. In series [3] (low level of reactive oxygen species generation), the “phototoxicity conclusion from ROS assay” value is recorded as “less phototoxic”. The “toxicity in the eye irritation test” value in “Eye irritation test” is “not toxic”. In the series with bacterial, the “genetic toxicity, bacterial reverse mutation test” value is “not toxic”.
